Like-named read-outs stand apart in the source and are kept apart here.

Our source for the IC50 values is patent US20150246938A1, “NOVEL OLEFIN DERIVATIVE” (SHIONOGI & CO., LTD., priority 2011, published 2015).

The experiment concerns the target T1, recombinant human ACC2 (Homo sapiens, UniProt O00763).
T1 construct: a cDNA encoding human ACC2 (27-2458) was cloned from human kidney cDNA library (Clontech); His-tag (N); made in house; host or cells: Sf-9 insect cells (Bac-to-Bac baculovirus)
Put plainly: Measurement of inhibitory activity on human ACC2 (MALDI-TOF MS, acetyl CoA to malonyl CoA conversion). The format is biochemical.

[1] abbreviates: inhibition activity on human ACC2, Table 79, read-out: IC50.
Setting [2] is: inhibition activity on human ACC2, Table 82, read-out: IC50.
[3] abbreviates: inhibition activity on human ACC2, Table 84, read-out: IC50.
The mark [4] stands for this setting: inhibition activity on human ACC2, Table 80, read-out: IC50.
[5] abbreviates: inhibition activity on human ACC2, untitled table (Table 81), read-out: IC50.

T1 sequence (O00763 27-2458): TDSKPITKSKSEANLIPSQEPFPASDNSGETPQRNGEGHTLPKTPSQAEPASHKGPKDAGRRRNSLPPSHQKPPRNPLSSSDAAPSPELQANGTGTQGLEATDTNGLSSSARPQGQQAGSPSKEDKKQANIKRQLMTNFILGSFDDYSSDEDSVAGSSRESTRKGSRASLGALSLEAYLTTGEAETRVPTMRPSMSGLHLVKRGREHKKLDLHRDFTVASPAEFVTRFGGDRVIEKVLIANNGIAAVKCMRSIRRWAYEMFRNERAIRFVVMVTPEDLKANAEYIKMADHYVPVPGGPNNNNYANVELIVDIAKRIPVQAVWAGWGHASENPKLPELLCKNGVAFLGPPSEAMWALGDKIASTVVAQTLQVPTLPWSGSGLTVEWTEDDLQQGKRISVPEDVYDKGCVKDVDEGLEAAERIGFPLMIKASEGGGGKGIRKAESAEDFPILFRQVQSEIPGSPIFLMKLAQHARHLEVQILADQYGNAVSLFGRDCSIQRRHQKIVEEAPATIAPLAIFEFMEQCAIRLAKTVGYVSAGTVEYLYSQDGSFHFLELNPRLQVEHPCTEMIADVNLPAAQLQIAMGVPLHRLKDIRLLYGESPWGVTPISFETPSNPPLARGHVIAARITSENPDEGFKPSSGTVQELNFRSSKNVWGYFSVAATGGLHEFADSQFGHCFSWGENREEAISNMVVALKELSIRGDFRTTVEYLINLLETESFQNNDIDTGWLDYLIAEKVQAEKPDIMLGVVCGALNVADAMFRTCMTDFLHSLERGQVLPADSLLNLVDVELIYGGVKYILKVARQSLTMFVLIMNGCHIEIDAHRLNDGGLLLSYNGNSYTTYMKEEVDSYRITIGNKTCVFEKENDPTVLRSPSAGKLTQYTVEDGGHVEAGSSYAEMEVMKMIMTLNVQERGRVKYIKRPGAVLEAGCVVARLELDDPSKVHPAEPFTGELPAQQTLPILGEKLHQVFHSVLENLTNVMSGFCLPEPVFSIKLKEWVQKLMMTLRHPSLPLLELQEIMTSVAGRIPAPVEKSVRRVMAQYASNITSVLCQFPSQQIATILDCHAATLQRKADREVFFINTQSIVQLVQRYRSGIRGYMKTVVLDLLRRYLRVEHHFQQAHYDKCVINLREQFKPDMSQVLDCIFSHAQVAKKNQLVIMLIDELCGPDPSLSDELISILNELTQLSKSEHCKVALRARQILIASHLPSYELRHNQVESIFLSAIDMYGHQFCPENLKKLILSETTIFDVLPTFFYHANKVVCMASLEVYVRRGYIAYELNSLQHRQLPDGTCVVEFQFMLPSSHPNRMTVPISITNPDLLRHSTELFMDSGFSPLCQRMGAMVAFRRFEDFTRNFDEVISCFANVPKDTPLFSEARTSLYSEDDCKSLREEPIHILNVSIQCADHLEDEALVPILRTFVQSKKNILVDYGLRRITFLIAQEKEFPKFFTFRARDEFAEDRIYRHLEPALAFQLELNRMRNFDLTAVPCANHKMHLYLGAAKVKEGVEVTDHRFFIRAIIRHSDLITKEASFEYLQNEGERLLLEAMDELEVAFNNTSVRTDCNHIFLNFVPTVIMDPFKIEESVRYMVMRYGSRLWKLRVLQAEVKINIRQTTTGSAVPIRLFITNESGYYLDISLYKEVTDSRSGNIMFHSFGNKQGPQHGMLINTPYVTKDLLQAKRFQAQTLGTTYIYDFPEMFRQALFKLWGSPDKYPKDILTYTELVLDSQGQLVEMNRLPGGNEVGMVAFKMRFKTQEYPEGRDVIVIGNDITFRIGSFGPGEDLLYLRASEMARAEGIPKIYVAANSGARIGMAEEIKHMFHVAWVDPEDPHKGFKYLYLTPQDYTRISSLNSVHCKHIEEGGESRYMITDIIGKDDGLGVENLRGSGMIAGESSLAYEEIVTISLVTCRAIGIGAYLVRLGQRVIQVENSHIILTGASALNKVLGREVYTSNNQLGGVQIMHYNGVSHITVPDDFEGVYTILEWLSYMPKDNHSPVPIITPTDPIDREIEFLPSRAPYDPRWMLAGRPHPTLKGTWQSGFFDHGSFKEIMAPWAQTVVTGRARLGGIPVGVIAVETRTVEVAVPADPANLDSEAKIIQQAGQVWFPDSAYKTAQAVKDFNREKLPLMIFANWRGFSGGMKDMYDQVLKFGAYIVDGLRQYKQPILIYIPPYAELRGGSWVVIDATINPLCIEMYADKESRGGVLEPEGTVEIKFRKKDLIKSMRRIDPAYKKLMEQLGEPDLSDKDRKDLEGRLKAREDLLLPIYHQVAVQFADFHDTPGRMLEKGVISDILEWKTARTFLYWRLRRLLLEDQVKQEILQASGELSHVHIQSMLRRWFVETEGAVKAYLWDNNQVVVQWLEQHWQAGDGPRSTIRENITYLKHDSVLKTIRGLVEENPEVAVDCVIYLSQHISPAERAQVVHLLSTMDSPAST

Turning to `CC(=O)N[C@@H](C)/C=C/c1ccc(Oc2ccc(OC(C)C)cc2Cl)nc1` [Compound I-37], the IC50 under setting [1] was determined as 37 nM.

With `CC(=O)N[C@@H](C)/C=C/c1ccc(Oc2ccc(-c3cccc(C#N)c3)cc2Cl)nc1` [Compound I-346], the IC50 under setting [2] was determined as 440 nM. The same measure, in the same setting: then `CC(=O)N[C@@H](C)/C=C/c1ccc(Oc2ccc(C3=CCN(C)CC3)cc2Cl)nc1` [Compound I-353], with 2600 nM.

As to `CC(C)S(=O)(=O)NCCCCC(=O)N[C@@H](C)/C=C/c1cnc(Oc2ccc(OCC3CC3)cc2Cl)s1` [Compound I-117], under setting [1], the IC50 turned out to be 38 nM. Consider `CC(=O)N[C@@H](C)/C=C/c1ccc(Oc2ccc(CC(C)C)cc2Cl)nc1` [Compound I-363], for which the IC50 under setting [2] turned out to be 29 nM.

As to `CC(=O)N[C@@H](C)/C=C/c1ccc(Oc2ccc(-c3ccccc3)c(Cl)c2)nc1` [Compound I-503], the concentration for half-maximal inhibition (IC50) under setting [3] is 5.1 nM. With `CC(=O)N[C@@H](C)/C=C/c1cnn(Cc2ccc(OCC3CC3)cc2)c1` [Compound I-64], the IC50 under setting [1] worked out at 5900 nM.

In the case of `CCOc1ccc(Oc2ccc(/C=C/[C@H](C)NC(N)=O)cn2)c(Cl)c1` [Compound I-184], the IC50 under setting [4] stood at 110 nM. In the case of `CCc1nc2cc(Cl)c(Oc3ccc(/C=C/[C@H](C)NC(C)=O)cn3)cc2s1` [Compound I-487], the IC50 under setting [3] is 38 nM.

`CC(=O)N[C@@H](C)/C=C/n1cc(Oc2ccc(OCC3CC3)cc2Cl)cn1` [Compound I-402]: the IC50 is 1100 nM. On to `CC(=O)N[C@@H](C)/C=C/c1ccc(Oc2ccc(C(C)(C)C(F)(F)F)cc2Cl)nc1` [Compound I-409], for which the half-maximal inhibitory concentration (IC50) came to 25 nM. For `CC(=O)N[C@@H](C)/C=C/c1ccc(Oc2ccc(C(C)O)cc2Cl)nc1` (stereo partly drawn) [Compound I-329], the IC50 under setting [2] was 1100 nM.

`CC(=O)N[C@@H](C)/C=C/c1ccc(Oc2ccc3nc(C(C)(C)C)sc3c2Cl)nc1` [Compound I-502]: the IC50 under setting [3] was found to be 7.1 nM. Consider `CC(=O)N[C@@H](C)/C=C/c1ccc(Oc2cncc(OC(C)C)c2)nc1` [Compound I-301], for which, under setting [5], the IC50 was determined as 1900 nM. Turning to `CC(=O)N[C@@H](C)/C=C/c1ccc(Oc2ccc3c(c2)CCCC3)nc1` [Compound I-398], the IC50 worked out at 43 nM.

For `CCNC(=O)c1cc(C(=O)N[C@@H](C)/C=C/c2cnn(Cc3ccc(F)c(C(F)(F)F)c3)c2)ccn1` [Compound I-309], the half-maximal inhibitory concentration (IC50) under setting [5] turned out to be 2800 nM. As to `CC(=O)N[C@@H](C)/C=C/c1ccc(Oc2ccc(-c3nccs3)cc2Cl)nc1` [Compound I-416], the half-inhibitory concentration (IC50) was 170 nM. Regarding `CC(=O)N[C@@H](C)/C=C/c1ccc(Oc2ccc(C3CC3)c(Cl)c2)nc1` [Compound I-298], under setting [5], the IC50 came out at 58 nM.

Turning to `CC(=O)N[C@@H](C)/C=C/c1cnc(Oc2ccc(C(C)(C)C)cc2Cl)cn1` [Compound I-497], under setting [3], the IC50 is 51 nM. Regarding `CO/N=C(\C)c1ccc(Oc2ccc(/C=C/[C@H](C)NC(C)=O)cn2)c(Cl)c1` [Compound I-333], under setting [2], the IC50 was determined as 180 nM. As for `CC(=O)N[C@@H](C)/C=C/c1cnn(Cc2ccc(OCC3CC3)c(Cl)c2Cl)c1` [Compound I-262], the IC50 under setting [5] turned out to be 660 nM. Turning to `CC(=O)NC(C)/C(F)=C/c1ccc(Oc2ccc(OCC3CC3)cc2Cl)nc1` (stereo not drawn) [Compound I-366], the IC50 under setting [2] amounted to 15 nM.

In the case of `CC(=O)N[C@@H](C)/C=C/c1cnc(Oc2ccc(OCC3CC3)cc2Cl)n1C` [Compound I-341], under setting [2], the concentration for half-maximal inhibition (IC50) was 450 nM. On to `CCCC(F)(CC)c1ccc(Oc2ccc(/C=C/[C@H](C)NC(C)=O)cn2)c(Cl)c1` (stereo partly drawn) [Compound I-467], for which, under setting [3], the IC50 came to 43 nM. With `Cc1cc(N[C@@H](C)/C=C/c2cnn(Cc3ccc(OCC4CC4)cc3Cl)c2)no1` [Compound I-205], the IC50 under setting [4] was 1600 nM. Consider `CCCc1ccc(Oc2ccc(/C=C/[C@H](C)NC(C)=O)cn2)cc1Cl` [Compound I-305], for which the IC50 under setting [5] amounted to 11 nM.

Regarding `CCC(F)c1ccc(Oc2ccc(/C=C/[C@H](C)NC(C)=O)cn2)c(Cl)c1` (stereo partly drawn) [Compound I-373], the IC50 under setting [2] is 25 nM.

In the case of `CC(=O)N[C@@H](C)/C=C/c1cnn(Cc2c(Cl)cc(OCC3CC3)cc2Cl)c1` [Compound I-69], the half-maximal inhibitory concentration (IC50) under setting [1] came out at 470 nM. Regarding `CC(=O)N[C@@H](C)/C=C/c1ccc(Oc2ccc(C3(C)CC3(F)F)cc2Cl)nc1` (stereo partly drawn) [Compound I-434], the IC50 under setting [3] came to 100 nM. For the molecule `CCOc1ccc(Oc2ccc(/C=C/[C@H](C)NC(C)=O)cn2)cc1` [Compound I-16], under setting [1], the IC50 worked out at 31 nM. Take `CC(=O)N[C@@H](C)/C=C/c1ccc(Oc2ccc(N3CCCC3=O)cc2Cl)nc1` [Compound I-272]: the IC50 under setting [5] came to 450 nM. Turning to `CC(=O)N[C@@H](C)/C=C/c1ccc(Oc2ccc(-c3cnc(C(F)(F)F)cn3)cc2Cl)nc1` [Compound I-417], the IC50 came out at 57 nM. Turning to `C[C@@H](/C=C/c1cnc(Oc2ccc(OCC3CC3)cc2Cl)s1)NC(=O)c1cccc(C#N)c1` [Compound I-155], under setting [4], the IC50 was found to be 580 nM. Regarding `CC(=O)N[C@@H](C)/C=C/c1cnn(Cc2cc(F)c(OCC3CC3)cc2F)c1` [Compound I-292], under setting [5], the IC50 was determined as 1600 nM. On to `CC(=O)c1ccc(C(=O)N[C@@H](C)/C=C/c2cnc(Oc3ccc(OCC4CC4)cc3Cl)s2)s1` [Compound I-148], for which the IC50 under setting [4] was 880 nM.

Take `CC(=O)N[C@@H](C)/C=C/c1ccc(Oc2ccc(Oc3ccccn3)cc2Cl)nc1` [Compound I-463]: the IC50 under setting [3] stood at 68 nM. For `CC(=O)N[C@@H](C)/C=C/c1ccc(Oc2ccc(N3CCOCC3)cc2Cl)nc1` [Compound I-382], the IC50 was found to be 1300 nM. Turning to `CC(=O)N[C@@H](C)/C=C/c1ccc(Oc2ccc3nc(C)sc3c2Cl)nc1` [Compound I-455], under setting [3], the IC50 was 30 nM. Take `CC(=O)N[C@@H](C)/C=C/c1ccc(Oc2ccc(OS(=O)(=O)C(F)(F)F)cc2Cl)nc1` [Compound I-331]: under setting [2], the IC50 turned out to be 130 nM. `CCCc1ccc(Oc2ccc(/C=C/[C@H](C)NC(C)=O)cn2)c(-c2ccccc2)c1` [Compound I-408]: the IC50 turned out to be 2300 nM. Still for that read-out and setting: then `CCOc1ccc(Oc2ncc(/C=C/[C@H](C)NC(C)=O)cc2N)c(Cl)c1` [Compound I-430], with 2700 nM. As to `CCCc1ccc(Oc2cnc(/C=C/[C@H](C)NC(C)=O)cn2)c(Cl)c1` [Compound I-433], the IC50 under setting [3] is 49 nM. As for `C[C@@H](/C=C/c1cnc(Oc2ccc(OCC3CC3)cc2Cl)s1)NC(=O)NCCC(F)(F)F` [Compound I-194], the IC50 under setting [4] stood at 300 nM. With `CCC(CC)c1ccc(Oc2ccc(/C=C/[C@H](C)NC(C)=O)cn2)c(Cl)c1` [Compound I-436], under setting [3], the IC50 amounted to 58 nM. With `CCC(O)c1ccc(Oc2ccc(/C=C/[C@H](C)NC(C)=O)cn2)c(Cl)c1` (stereo partly drawn) [Compound I-359], the IC50 under setting [2] worked out at 230 nM. Take `CC(=O)N[C@@H](C)/C=C/c1ccc(Oc2ccc(OC3CCC3)cc2Cl)nc1` [Compound I-39]: under setting [1], the IC50 came out at 11 nM.

Turning to `CCC(F)(F)c1ccc(Oc2ccc(/C=C/[C@H](C)NC(N)=O)cn2)c(Cl)c1` [Compound I-393], the IC50 was found to be 48 nM. For `C[C@@H](/C=C/c1cnc(Oc2ccc(OCC3CC3)cc2Cl)s1)NC(=O)c1ccnc(NCCCN2CCCC2=O)c1` [Compound I-246], the IC50 under setting [4] amounted to 73 nM. With `CC(=O)N[C@@H](C)/C=C/c1ccc(Oc2ccc(-c3ccc(C#N)nc3)cc2Cl)nc1` [Compound I-376], the concentration for half-maximal inhibition (IC50) under setting [2] was found to be 1100 nM. For `CCCc1ccc(Oc2ncc(/C=C/[C@H](C)NC(C)=O)s2)c(Cl)c1` [Compound I-411], the IC50 was found to be 77 nM. With `CC(=O)N[C@@H](C)/C=C/c1ccc(Oc2ccc(-c3ccccc3)cc2Cl)nc1` [Compound I-267], the IC50 under setting [5] was determined as 44 nM.
